These are literature values, as cited in US20240091240A1, “TREATMENTS FOR BLOOD-BRAIN BARRIER DYSFUNCTION AND RECURRENT SEIZURES USING NOX/LOX/COX INHIBITORS” (University of Kentucky Research Foundation, priority 2022, published 2024).

The test system of the data set is subjects suffering from seizures. The following applies: dosage of 5 mg/kg and 10 mg/kg.

With `CC1(C)Cc2c(-c3ccccc3)c(-c3ccc(Cl)cc3)c(CC(=O)O)n2C1` [licofelone], the brain capillary leakage entry is “reduce brain capillary leakage”.
